Activity calls are given as the source filed them. No cut-off for these calls is given here.
Legend:
U2932 [1] = assay: Cytotoxicity against human U2932 cells assessed as inhibition of cell growth measured after 72 hrs by CCK-8 assay; format: functional, cell-based; conditions: U2932, 72 h
[2] = biological target: Cyclin-dependent kinase 9 (Homo sapiens) (UniProt P50750); assay: (§1) Inhibition of GST-fused human full-length CDK9 (1 to 372(end) residues)/N-terminal GST-fused His-tagged human full-length CyclinT1 (1 to 726(end) residues) expressed in baculovirus expression system at 100 nM using CDK7/9 tide as substrate incubated for 120 mins in presence of ATP by ADP-Glo Kinase assay relative to control
Cyclin-dependent kinase 9 (Homo sapiens), sequence (P50750 whole entry, the tested form may be a part): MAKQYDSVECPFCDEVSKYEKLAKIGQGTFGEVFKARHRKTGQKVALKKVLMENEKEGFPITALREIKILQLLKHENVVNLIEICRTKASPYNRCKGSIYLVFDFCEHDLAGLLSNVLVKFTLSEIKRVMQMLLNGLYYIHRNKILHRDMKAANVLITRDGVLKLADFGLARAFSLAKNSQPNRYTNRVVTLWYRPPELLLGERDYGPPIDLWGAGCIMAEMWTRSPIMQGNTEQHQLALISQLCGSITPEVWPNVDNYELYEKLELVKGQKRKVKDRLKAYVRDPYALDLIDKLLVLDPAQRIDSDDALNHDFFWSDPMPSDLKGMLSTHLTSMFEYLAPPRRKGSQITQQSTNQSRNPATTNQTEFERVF

[3] = biological target: Cyclin-dependent kinase 9 (Homo sapiens) (UniProt P50750); assay: as §1, with “10” for “100”
U2932 [4] = assay: Induction of apoptosis in human U2932 cells assessed as necrotic cells at 1000 nM incubated for 24 hrs by AnnexinV-FITC/PI staining based flow cytometry analysis (reference value: 0.92%); format: functional
[5] = biological target: CDK9/cyclin T1 (Homo sapiens) (UniProt O60563+P50750); assay: Induction of CDK9/CyclinT1 degradation in human U2932 cells at 100 nM measured after 24 hrs by immunoblotting analysis; format: cell-based
U2932 [6] = assay: Induction of apoptosis in human U2932 cells assessed as viable cells at 1000 nM incubated for 24 hrs by AnnexinV-FITC/PI staining based flow cytometry analysis (reference value: 86.9%); format: functional; conditions: read-out: Activity
U2932 [7] = assay: Induction of apoptosis in human U2932 cells assessed as early apoptotic cells at 1000 nM incubated for 24 hrs by AnnexinV-FITC/PI staining based flow cytometry analysis (reference value: 6.20%); format: functional
U2932 [8] = assay: Induction of apoptosis in human U2932 cells assessed as late apoptotic cells at 1000 nM incubated for 24 hrs by AnnexinV-FITC/PI staining based flow cytometry analysis (reference value: 5.95%); format: functional

Compound: COc1ccc(-c2cc(=O)oc3cc(O)cc(OCCCN4CCC(C(=O)Nc5ncc(SCc6ncc(C(C)(C)C)o6)s5)CC4)c23)cc1
- IC50 (U2932 [1]): 604 nM
- inhibition [2]: 61%
- inhibition [3]: -5%

Compound: CC(C)(C)c1cnc(CSc2cnc(NC(=O)C3CCN(CCCOc4cc(O)cc5oc(=O)cc(-c6ccccc6)c45)CC3)s2)o1
- IC50 (U2932 [1]): 624 nM
- inhibition [2]: 51%
- inhibition [3]: -8%

Compound: CC(C)(C)c1cnc(CSc2cnc(NC(=O)C3CCN(CC(=O)NCCOCCOCCOCCNc4cccc5c4C(=O)N(C4CCC(=O)NC4=O)C5=O)CC3)s2)o1 (centres undefined)
- IC50 (U2932 [1]): 306 nM
- Activity (U2932 [4]): 1.55%
- Activity [5]: Active
- inhibition [2]: 39%
- viability at 1 µM (U2932 [6]): 67.2%
- Activity (U2932 [7]): 8.93%
- Activity (U2932 [8]): 22.3%
- inhibition [3]: 4%

Compound: Cc1cc(=O)oc2cc(OCCN3CCC(C(=O)Nc4ncc(SCc5ncc(C(C)(C)C)o5)s4)CC3)cc(O)c12
- IC50 (U2932 [1]): 155 nM
- inhibition [2]: 69%
- inhibition [3]: 37%

Compound: Cc1cc(=O)oc2cc(O)cc(OCCCN3CCC(C(=O)Nc4ncc(SCc5ncc(C(C)(C)C)o5)s4)CC3)c12
- IC50 (U2932 [1]): 157 nM
- Activity [5]: Active
- inhibition [2]: 55%

Compound: CC(C)(C)c1cnc(CSc2cnc(NC(=O)C3CCN(CCCOc4cc(O)c5c(-c6ccncc6)cc(=O)oc5c4)CC3)s2)o1
- IC50 (U2932 [1]): 192 nM
- Activity [5]: Active
- inhibition [2]: 69%
- inhibition [3]: 15%

Compound: COc1ccc(-c2cc(=O)oc3cc(OCCCN4CCC(C(=O)Nc5ncc(SCc6ncc(C(C)(C)C)o6)s5)CC4)cc(O)c23)cc1
- IC50 (U2932 [1]): 104 nM
- Activity [5]: Active
- inhibition [2]: 83%
- inhibition [3]: 33%

Compound: CC(C)(C)c1cnc(CSc2cnc(NC(=O)C3CCN(CCCOc4cc(O)cc5oc(=O)ccc45)CC3)s2)o1
- IC50 (U2932 [1]): 125 nM
- Activity [5]: Active
- inhibition [2]: 52%
- inhibition [3]: -3%

Compound: Cc1cc(=O)oc2cc(O)cc(OCCN3CCC(C(=O)Nc4ncc(SCc5ncc(C(C)(C)C)o5)s4)CC3)c12
- IC50 (U2932 [1]): 424 nM
- inhibition [2]: 73%
- inhibition [3]: 23%

Compound: CC(C)(C)c1cnc(CSc2cnc(NC(=O)C3CCN(CCCOc4ccc5c(-c6ccccc6)cc(=O)oc5c4)CC3)s2)o1
- IC50 (U2932 [1]): 320 nM
- inhibition [2]: 69%
- inhibition [3]: 6%

Compound: Cc1cc(=O)oc2cc(O)cc(OCCOCCN3CCC(C(=O)Nc4ncc(SCc5ncc(C(C)(C)C)o5)s4)CC3)c12
- IC50 (U2932 [1]): 180 nM
- inhibition [2]: 63%
- inhibition [3]: 5%

Compound: CC(C)(C)c1cnc(CSc2cnc(NC(=O)C3CCN(CCCCCOc4cc(O)cc5oc(=O)ccc45)CC3)s2)o1
- IC50 (U2932 [1]): 109 nM
- inhibition [2]: 83%
- inhibition [3]: 24%

Compound: CC(C)(C)c1cnc(CSc2cnc(NC(=O)C3CCN(CCCOc4cc(O)cc5oc(=O)cc(-c6ccncc6)c45)CC3)s2)o1
- IC50 (U2932 [1]): 484 nM
- inhibition [2]: 55%

Compound: CC(C)(C)c1cnc(CSc2cnc(NC(=O)C3CCN(CCCOc4cc(O)c5ccc(=O)oc5c4)CC3)s2)o1
- IC50 (U2932 [1]): 157 nM
- Activity [5]: Active
- inhibition [2]: 78%
- inhibition [3]: 45%

Compound: Cc1cc(=O)oc2cc(O)cc(OCCCCN3CCC(C(=O)Nc4ncc(SCc5ncc(C(C)(C)C)o5)s4)CC3)c12
- IC50 (U2932 [1]): 142 nM
- inhibition [2]: 79%
- inhibition [3]: 9%

Compound: Cc1cc(=O)oc2cc(OCCCCCN3CCC(C(=O)Nc4ncc(SCc5ncc(C(C)(C)C)o5)s4)CC3)cc(O)c12
- IC50 (U2932 [1]): 98 nM
- inhibition [2]: 57%
- inhibition [3]: 2%

Compound: CC(C)(C)c1cnc(CSc2cnc(NC(=O)C3CCN(CCCOc4cccc5oc(=O)cc(-c6ccccc6)c45)CC3)s2)o1
- IC50 (U2932 [1]): 534 nM
- inhibition [2]: 36%
- inhibition [3]: -8%

Compound: Cc1cc(=O)oc2cc(OCCOCCN3CCC(C(=O)Nc4ncc(SCc5ncc(C(C)(C)C)o5)s4)CC3)cc(O)c12
- IC50 (U2932 [1]): 145 nM
- inhibition [2]: 71%
- inhibition [3]: 28%

Compound: CC(C)(C)c1cnc(CSc2cnc(NC(=O)C3CCN(CCCOc4cc(O)cc5oc(=O)cc(-c6ccc(F)cc6)c45)CC3)s2)o1
- IC50 (U2932 [1]): 346 nM
- inhibition [2]: 68%

Compound: Cc1cc(=O)oc2cc(OCCCCN3CCC(C(=O)Nc4ncc(SCc5ncc(C(C)(C)C)o5)s4)CC3)cc(O)c12
- IC50 (U2932 [1]): 133 nM
- inhibition [2]: 73%
- inhibition [3]: 26%

Compound: CC(C)(C)c1cnc(CSc2cnc(NC(=O)C3CCN(CCCOc4cc(O)c5c(-c6ccccc6)cc(=O)oc5c4)CC3)s2)o1
- IC50 (U2932 [1]): 120 nM
- Activity [5]: Active
- inhibition [2]: 86%
- inhibition [3]: -4%

Compound: CC(C)(C)c1cnc(CSc2cnc(NC(=O)C3CCN(CCCOc4cc(O)c5c(-c6ccc(F)cc6)cc(=O)oc5c4)CC3)s2)o1
- IC50 (U2932 [1]): 124 nM
- Activity [5]: Active
- inhibition [2]: 80%

— ChEMBL document CHEMBL5365461, “Degradation of Cyclin-Dependent Kinase 9/Cyclin T1 by Optimized Microtubule-Associated Protein 1 Light Chain 3 Beta-Recruiting Coumarin Analogs” (J Med Chem, 2023)
